# Columns and labels:
# Format in all cases: in vivo
# [1] = system: Camponotus modoc carpenter ants; assay: Laboratory consumption of liquid nutrient baits (Exps. 1, 3, 5, 7, 9, 11); settings: Exps. 5 and 7: single nutrients and ternary blend, unadjusted and adjusted concentrations
# Experimental: (§1) Liquid nutrient solutions for experiments (see Table 1 for nutrient concentrations) were prepared by weighing dry ingredients (TR 204 scale; Denver Instrument Company, CO, USA), and then mixing them in distilled water. Aliquots (1 mL) of these solutions were pipetted into 1.5-mL Eppendorf tubes (Thermo Fisher Scientific, Waltham, MA 02451, U.S.A.) which were stored in a freezer (−4° C.) until needed.
# (§2) Prior to experiments, Eppendorf tubes were removed from the freezer to thaw, and then vortexed to dissolve all solutes. Then, a 1-cm long piece of cotton dental wick (Richmond Dental & Medical, Charlotte, NC 28205, USA) was inserted into each tube, thus allowing ants to ingest the liquid without spillage. Also prior to bioassays, colonies were deprived of sugar water and food for 24 hours and 4 hours, respectively (the maximum time ants could endure without these foods before they attempted to chew their way out of containers). […]
# (§3) Colonies of C. modoc (Exp. 1) and M. rubra (Exp. 2) were offered three choices: (1) 11 EAAs+10 non-EAAs (1.05% total w/v) in water; (2) 10 non-EAAs (0.5% w/v) in water; and (3) a water control. […] Data were analyzed using generalized linear models (GLM) and generalized linear mixed models (GLMM). For all models, the significance (p 0.05) of each predictor was assessed using a likelihood ratio test (LRT), and Tukey adjusted pairwise comparisons between means. […]
# Myrmica rubra fire ants [2] = assay: Exp. 17: choice between lethal and non-lethal liquid bait, survival of laboratory colonies; settings: boric acid as lethal agent in baits; conclusion from Exps. 17-19 (M. rubra, F. oreas, C. modoc)
# [3] = system: Camponotus modoc field colonies; assay: Exp. 13: seasonal consumption of liquid food baits by field colonies; settings: Exp. 13, Jun. 18 to Sep. 7, 2021
# Excerpt: (§4) Tubes were spaced around the entrance of C. modoc and M. rubra nests, with tube positions randomly assigned in each replicate.
# (§5) For the C. modoc experiment (Exp. 13), Eppendorf tubes were affixed 5 cm apart to trees or logs housing a colony as shown, for example, in FIG. 6b. For the M. rubra experiment (Exp. 14), tubes were placed 5 cm apart around the entrance of subterranean nests. Evaporation control tubes were placed in Tupperware containers (15 cm×9 cm×10 cm) with a mesh-covered hole in the lid, and containers were set near ant nests. Replicates with M. rubra colonies (n=10; repeated on 7 dates) were run for 4 hours, and replicates with C. modoc colonies (n=13; repeated on 6 dates) were run for 24 hours. After replicates were terminated, tubes were capped, transported to the laboratory in a cooler, and weighed. All field studies were run on warm and sunny days with observable ant activity.
# (§6) Colonies of C. modoc were located along the Mamquam forest service road (near Squamish, BC, Canada) and colonies of M. rubra were located at Inter River Park (District of North Vancouver, BC, Canada). […] Throughout the summer season, nutrient consumption by colonies was measured in circa 3-week intervals on six dates for C. modoc colonies from Jun. 18, 2021 to Sep. 7, 2021, and on seven dates for M. rubra colonies from May 21, 2021 to Sep. 13, 2021.
# Myrmica rubra fire ants [4] = assay: Laboratory consumption of liquid nutrient baits (Exps. 2, 4, 6, 8, 10, 12)
# Experimental: as §1, §2, §3
# [5] = system: Myrmica rubra field colonies; assay: Exp. 14: seasonal consumption of liquid food baits by field colonies
# Excerpt: as §4, §5, §6
# [6] = system: Lasius niger black garden ants; assay: Exp. 15: consumption of liquid food baits by field colonies; settings: Exp. 15: EAAs 5.55%, sucrose 5.55%, EAAs 1.0% + sucrose 4.55% w/v, water
# Excerpt: In Experiments 15 and 16, the bait of EAAs and sucrose was effective for diverse ant taxa including black garden ants and thatching ants, as shown in FIG. 7. In Experiment 15 (n=10), colonies of Lasius niger black garden ants were located at the base of trees on the Burnaby campus of Simon Fraser University, and tubes were affixed next to each other on tree trunks alongside the ants' foraging trails. In Experiment 16 (n=10), colonies of Formica aserva thatching ants were located along the Mamquam forest service road (see above), and tubes were placed on top of tree stumps that contained an ant colony. For both experiments, evaporation control tubes were placed in Tupperware containers (15 cm×9 cm×10 cm) with a mesh-covered hole in the lid, and containers were set near ant colonies. Each colony was offered four Eppendorf tubes that contained: (1) EAAs (5.55% w/v); (2) sucrose (5.55% w/v), (3) EAAs (1.0% w/v)+sucrose (4.55% w/v); and (4) plain water (control).
smiles,measurement,setting,value
NC(N)=O [urea],consumption by colonies,[1],preferentially consumed
OB(O)O [boric acid],aversion to bait consumption,Myrmica rubra fire ants [2],not aversive to bait consumption
"OC[C@H]1O[C@@](CO)(O[C@H]2O[C@H](CO)[C@@H](O)[C@H](O)[C@H]2O)[C@@H](O)[C@@H]1O [sucrose, D-sucrose]",change of consumption over the season,[3],decreased over time
same,consumption by colonies,"Myrmica rubra fire ants [4]; Exp. 6: unadjusted concentrations (urea 2.5%, EAAs 0.55%, sucrose 2.5% w/v)",preferentially consumed
same,consumption by colonies,Myrmica rubra fire ants [4]; Exp. 8: adjusted concentrations (5.55% w/v),preferentially consumed
same,change of consumption over the season,"[5]; Exp. 14, May 21 to Sep. 13, 2021",declined over time
same,consumption by field colonies,"[5]; Exp. 14: EAA 5.55%, sucrose 5.55%, EAA 1.0% + sucrose 4.55% w/v, water, seven dates, 4 hours",generally consumed more sucrose
same,consumption by field colonies,[6],equally consumed
